Tests used:
Type in all cases: functional
Conditions in all cases: Homo sapiens
[1] = Percent inhibition of sickling of sickle red blood (SS) cells under 4% oxygen was evaluated at 1 mM concentration
[2] = Percent inhibition of sickling of sickle red blood (SS) cells under 4% oxygen was evaluated at 2 mM concentration
[3] = Percent inhibition of sickling of sickle red blood (SS) cells under 4% oxygen was evaluated at 5 mM concentration

SMILES	inhibition at 1000 µM [1]	inhibition at 2000 µM [2]	inhibition at 5000 µM [3]
O=Cc1ccco1 [FURFURAL]	0%	0%	30%
COc1cc(C=O)ccc1O [VANILLIN]	–	–	20%
O=Cc1ccc(CO)o1 [AES-103]	13%	42%	90%

From ChEMBL document CHEMBL1138745, “Structural basis for the potent antisickling effect of a novel class of five-membered heterocyclic aldehydic compounds” (2004)
